Laboratory results published in a melting point compilation (Tetko et al.; mined from patent text by program, amines drawn as free bases though some values may be those of a salt).

First: O=C1CC2(CCCC2)CC(=O)N1CCCCc1ccncc1
Second: O=S1(=O)N=CN(C2CCCCCC2)c2cc(Cl)ccc21
The melting point of the first is lower: 155 to 157 °C for the first, 209 to 211 °C for the second.

First: Oc1ccc(-c2n[nH]c3ncnc(Nc4cccc(Cl)c4)c23)cc1
Second: COc1cccc(Nc2cc(Nc3ccc(F)c(Cl)c3)ncn2)c1
The melting point of the first is higher: over 220 °C for the first, 214 to 216 °C for the second.

First: CC(C)(C)CC(C)(C)c1cc(Cc2cc(C(C)(C)CC(C)(C)C)cc(-n3nc4ccccc4n3)c2O)c(O)c(-n2nc3ccccc3n2)c1
Second: Cc1cc(SC(C)CC(Sc2cc(C)c(O)c(C(C)(C)C)c2)Sc2cc(C)c(O)c(C(C)(C)C)c2)cc(C(C)(C)C)c1O (stereo not given)
The melting point of the first is higher: 198 °C for the first, 65 to 69 °C for the second.

First: CCCc1c[nH]c(CCC(=O)N(C)C)c1
Second: CCCOc1ccc2c(c1)C(N(C)S(C)(=O)=O)C(O)C(C)(C)O2 (stereo not given)
The melting point of the first is lower: 71 to 72 °C for the first, 149 to 151 °C for the second.

First: O=C(c1ccc(F)cc1)C1CCN(CCn2c(=O)[nH]c3ccccc32)CC1
Second: CNC(=O)c1ccc(N2CCN(Cc3cnc4c(c3)[nH]c(=O)n3cccc43)CC2)cc1
The melting point of the first is lower: 164 °C for the first, 286 to 289 °C for the second.

Compared with `CCCCCCCCCCNC(=O)c1ccc(N(CC(=O)OC)CC(=O)OC)cc1`, `CCCCCCCCCCCCOC(=O)c1cc([N+](=O)[O-])c(C(=O)O)cc1C(=O)O` is higher in melting point: 104 to 106 °C for the first, 148 °C for the second.

First: Cc1nc(-c2ccc(N3CCN(C)CC3)c([N+](=O)[O-])c2)sc1C(=O)O
Second: COC(=O)CSc1nc(Nc2ccc(N3CCOCC3)cc2)ncc1[N+](=O)[O-]
The melting point of the first is higher: 218 to 220 °C for the first, 188 to 190 °C for the second.

First: Clc1nc(NCc2cccc(I)c2)c2[nH]cnc2n1
Second: CC(C)CN(Cc1ccccc1)c1ncnc2nc[nH]c12
The melting point of the first is higher: 222 to 224 °C for the first, 160 to 162 °C for the second.

First: CC1=C(C(=O)OCCCO[N+](=O)[O-])C(c2cccc([N+](=O)[O-])c2)C(C(=O)OCCCO[N+](=O)[O-])=C(N)N1 (stereo not given)
Second: COC(=O)C1=C(C)NC(C)=C(C)C1c1ccccc1 (stereo not given)
The melting point of the first is higher: 145 to 146 °C for the first, 120 °C for the second.

First: Cc1c(NC(=O)c2ccc(-c3ccccc3)cc2F)ccc2cc(CN3CCCCCC3)cnc12
Second: CC(C)n1c2ccccc2c2cc(NC(=O)c3ccccc3Cl)ccc21
The melting point of the first is lower: 151 to 153 °C for the first, 195 °C for the second.

First: CC(=O)Oc1cccc(C(=O)Nc2nc(S(C)(=O)=O)cs2)c1
Second: CONC(=O)c1ccccc1NC(=O)Cc1cccc(Br)c1
The melting point of the first is higher: 209 to 212 °C for the first, 166 °C for the second.

First: CCOc1cc(C2COCCC2NC(=O)c2ccc(C(=O)N(C(C)C)C(C)C)cc2)ccc1OC (stereo not given)
Second: CCCCCCOc1ccc(C(=O)Nc2ccc(C(=O)O)cc2)cc1C12CC3CC(CC(C3)C1)C2
The melting point of the first is lower: 166 to 168 °C for the first, 256 to 257 °C for the second.

Compared with `CN(CCc1cccc(O)c1)c1cnc(-c2ccccc2)c(-c2ccccc2)n1`, `COc1ccc2c(=O)c(-c3ccccc3)c(SCc3ccccc3)oc2c1` is lower in melting point: 158 to 161 °C for the first, 153 to 154 °C for the second.

Compared with `CCC(C#N)Oc1cccc([N+](=O)[O-])c1Cl` (stereo not given), `O=C(/C=C/c1ccc(Sc2ccccc2[N+](=O)[O-])c(Cl)c1Cl)N1CCOCC1` is higher in melting point: 69 to 71 °C for the first, 210 to 213 °C for the second.

First: COc1ccc(-c2nc3ccccc3n3cncc23)cc1
Second: CCOCCc1c(-c2ccc(OC)cc2)nc(N)n2ncnc12
The melting point of the first is higher: 187 to 188 °C for the first, 176 to 177 °C for the second.

First: CCNC(=O)c1sc(-n2ccc(O)cc2=O)cc1C
Second: COc1ccc2cc(SCCC(=O)O)n(C)c2c1
The melting point of the first is higher: 183 to 184 °C for the first, 120 to 122 °C for the second.

First: NC(=NO)c1nc(Cl)c(Cl)[nH]1
Second: CC(=O)c1nc(-c2ccc(C)nc2Cl)[nH]c1C
The melting point of the first is higher: 270 to 275 °C for the first, 156 to 158 °C for the second.

First: CC(C)C(C(N)=O)N(C)C(=O)OC(C)(C)C (stereo not given)
Second: CCCC[C@H](NC(=O)[C@H](CC(C)C)NC(=O)OCc1ccccc1)C(=O)CSC
The melting point of the first is higher: 181 to 183 °C for the first, 80 to 82 °C for the second.

First: CCOC(=O)CN(C(=O)C(F)(F)F)c1ccc(Cl)cc1C#N
Second: CCS(=O)(=O)N(C(C)=O)c1cc(-c2ncnc(C(F)(F)F)c2Cl)c(F)cc1C#N
The melting point of the first is lower: 71 to 73 °C for the first, 144 to 146 °C for the second.

First: CCCCCS(=O)(=O)NC(=O)CCc1ccc(OC(C)C)cc1OCc1ccc(Cl)cc1Cl
Second: CCOC(=O)C=Cc1ccc(CCNS(=O)(=O)c2ccc(Cl)cc2)cc1
The melting point of the first is higher: 120 °C for the first, 97 to 98 °C for the second.

First: CCCC(=O)OCC(=O)C1(OC(=O)COC)CCC2C3CC(C)C4=CC(=O)C=CC4(C)C3C(O)CC21C (stereo not given)
Second: CCOC(=O)c1cnn(-c2ccc(OCC(C)(C)C(=O)OC)c(C#N)c2)c1
The melting point of the first is higher: 132 to 134 °C for the first, 95 to 96 °C for the second.

First: O=Cc1cn(Cc2ccccc2)nc1OCc1ccccc1
Second: COCCOc1cc2ncc(C#N)c(Cl)c2cc1OCc1ccccc1
The melting point of the first is lower: 85 to 86 °C for the first, 142 to 145 °C for the second.

Compared with `Cc1cc2c(nc3n2CCC3)c([N+](=O)[O-])c1Br`, `COc1cc(Br)nc(NC(=O)NS(=O)(=O)c2cccc3c2SCC3)n1` is higher in melting point: 201 to 203 °C for the first, 238 to 240 °C for the second.

Compared with `CCCCc1nc(-c2ccc(N3CCN(C(=O)c4ccccc4C(F)(F)F)CC3)nn2)no1`, `CCOC(=O)c1nc2cc(NC(=O)c3c(C(=O)N4CCC4)cnn3C)ccn2n1` is higher in melting point: 175 °C for the first, 252 to 255 °C for the second.

Compared with `Cn1cc(-c2cc3cccnc3[nH]2)c2cc(OC3(C(N)=O)CCC3)ccc21`, `COC(=O)c1ccc2[nH]c3cnc(C(=O)OC)c(C)c3c2c1` is lower in melting point: 267 to 268 °C for the first, 199 to 204 °C for the second.

Compared with `Cc1c(F)cccc1Cc1c(-c2ccccc2)c2ccccn2c1C(=O)N1CCN(C(=O)OC(C)(C)C)[C@@H](CCO)C1`, `O=C(O)COc1ccc2c(=O)c3c(F)cccc3oc2c1Cl` is higher in melting point: 85 °C for the first, 300 °C for the second.

First: Cc1nc2ccnc(-c3ccccc3)n2n1
Second: Oc1ccccc1-c1ccc(Cl)nn1
The melting point of the first is lower: 68 to 71 °C for the first, 188 °C for the second.

First: Nc1ccccc1Oc1cccc2c1NC(=O)C2
Second: CCOc1cc2c(c(Cl)c1O)Sc1ccccc1N2
The melting point of the first is higher: 210 to 212 °C for the first, 186 to 189 °C for the second.

First: Oc1ccc(CCCC2OCCO2)cc1
Second: CCCNC(=O)C1c2ccccc2-c2ccccc21
The melting point of the first is lower: 67 to 68 °C for the first, 197 to 199 °C for the second.

First: CC(F)(F)c1cccc(C(=O)O)c1
Second: CC(=O)Nc1cc(C(=O)O)ccc1C(F)(F)F
The melting point of the first is lower: 96 to 97 °C for the first, 195 to 197 °C for the second.

First: COC(=O)c1cc(OC)c(C#N)c(OC)c1
Second: CC(C)(C)c1nc2cc(N3CCCC3)c(NC(N)=S)cc2s1
The melting point of the first is lower: 151 to 153 °C for the first, 221 °C for the second.

First: NC(=O)Cn1c(=O)c2ncn3c2n(c1=O)CC=C3c1cccc(C(F)(F)F)c1
Second: O=C(O)c1cccc(-c2ccc(Cl)c3cc(Cc4cc(F)cc(Cl)c4)sc23)c1
The melting point of the first is higher: 283 to 285 °C for the first, 110 to 114 °C for the second.

First: CCCCCCCCCN(C[C@H]1CCC[C@H](CN(CCCCCCCCC)C(=O)Nc2ccc(N(C)C)cc2)C1)C(=O)Nc1ccc(N(C)C)cc1 (relative stereo)
Second: CCCCCCCCCCCCCCCCCC(=O)OC(CCc1cc(C(C)(C)C)c(O)c(C(C)(C)C)c1)CCc1cc(C(C)(C)C)c(O)c(C(C)(C)C)c1
The melting point of the first is higher: 116 to 120 °C for the first, 52 to 54 °C for the second.

First: CNC(=O)ON=C1SC(C)C(=O)NC1(C)C (stereo not given)
Second: C=C[C@]1(C)C(=O)N(C)[C@H](C(C)(C)C)N1C(=O)c1ccccc1
The melting point of the first is higher: 190 to 191 °C for the first, 117 to 118 °C for the second.

Going from `CC1(C)Oc2ccc(-c3c(O)c(=O)c3=O)cc2[C@@H](N2Cc3ccccc3C2=O)[C@@H]1O` (relative stereo) to `NS(=O)(=O)NCc1csc2ccccc12`, the melting point falls from over 250 °C to 101 °C.
